Data from patent US6815421B1, “Polypeptides for use in ameliorating effects of aging in mammals” (Osteopharm Inc., priority 2001, dated 2004).

Test: Body weight and DEXA body composition in aging intact and ovariectomized rats treated with polypeptide
Format: in vivo, female Sprague-Dawley rats
Settings: for increase in bone mineral content / increase in body fat content: DEXA
Protocol: Experiments were conducted using female Sprague-Dawley rats that were about 5 months old at the beginning of the experiments. The rats were obtained from Vivarium of the University of Toronto, Mississauga, Ontario, Canada.
The rats were housed in pairs in either a standard shoebox cage 15 cm in height (low cage) or a cage with 22 cm height (tall cage). Humidity was maintained at 50%; temperature 22° C.; dark/light cycle of 12 hours. The rats were fed Standard Purina Rat Chow (unlimited daily supply) and tap water ad libitum.
Ovariectomies were performed under general isofluorane anaesthesia. A 1.5 cm dorsal midline incision was made. The skin and subcutaneous tissue were separated by blunt dissection. A small incision was made on either side in the posterior abdominal muscle wall (approximately 0.5 cm) to expose the ovaries. The ovaries were removed together with the proximal ends of the Fallopian tubes after the ligation of the ovarian arteries. The wounds in the abdominal muscle wall were not stitched. The dorsal skin wound was closed by three surgical wound clips. Tamgesic (0.2 ml) was given subcutaneously for the relief of pain immediately after the operation.
Body weight measurements were made by direct weighing with an electronic balance (to 0.01 g) and by DEXA measurement, Instrument: Hologic 4500A with program for regional measurement for small animals. The animals were scanned supine under general isofluorane anaesthesia. The whole body was scanned including the whole tail. The weights for the mineral content, the fat content and the lean body mass were summed to obtain total body weight.
Non-treated (control) animals were injected subcutaneously daily with 400 μL of 20 mM sodium acetate (pH 4.5) 5 days per week. Treated animals were injected subcutaneously with 300 nmoles per kg of body weight of the test polypeptide (SEQ ID NO:1) in 400 μL of 20 mM sodium acetate (pH 4.5) daily five days per week. The treatment period was nine months. The material, chemically synthesized, was obtained from the Protein DNA Core facility of Queen's University, Kingston, Ontario, Canada. Purification, by HPLC, indicated the test compound to be at least 95% pure.
DEXA measurements were evaluated as an indication of body composition. Through the attenuation of X-ray energy DEXA measurements provide an indication of the mass of various body tissues. In the Hologic DEXA instrument, the program measures the mass of bone tissue, fat and lean body mass (largely muscle mass). The sum of these measured masses represents total body mass. If this proposition is correct, then the total body mass measured by DEXA and measured directly by balance will be the same. Over the course of these experiments, 677 paired measurements of the body weight were made using the two methods. The results obtained (FIG. 1) indicate that there is a close relationship between the DEXA measurements and the measurements. It was thus concluded that body composition could be assessed using DEXA measurements.
Eight groups of rats were treated as follows:
Ovariectomies were performed at the age of 5 months. The ovariectomized animals were allowed to lose bone for two months following ovariectomy before the treatment began. A baseline measurement was made immediately prior to operation. Another pretreatment baseline measurement was made at the beginning of treatment, i.e. two months after ovariectomization. Measurements were made approximately monthly thereafter. At the end of the experiments, all animals were sacrificed by carbon dioxide narcosis.
Procedures were carried out according to the following schedule: […]

Xaa1-Thr-GIn-Glu-His-Thr-Ala-Glu-Cys-Xaa10, where Xaa1 is N-acetyl arginine and Xaa10 is lysinamide (Ac-RTQEHTAECK-NH2) [SEQ ID NO:1, 10-mer, protected at both ends]
change in lean body mass (all groups of rats (intact and ovariectomized, treated and untreated), 10-month experimental period, FIGS. 6A to 7B): relatively small change
increase in bone mineral content (intact rats, FIG. 8): attenuation of the increase
increase in body fat content (intact rats, vs untreated (control) rats, reduction greatest in tall cages, FIG. 4): reduced
age-related gain in total body weight (intact rats, tall and low cages, 300 nmoles per kg s.c. daily five days per week, vs untreated, FIG. 2): lower age-related gain
change in BMC/BW ratio with time (intact rats, tall and low cages, vs untreated, FIGS. 10 and 11): changed much less
change in LBM/BW ratio with time (intact rats, tall and low cages, vs untreated, FIGS. 14 and 15): changed much less
attenuating effect on change in LBM/BW ratio over time (ovariectomized rats compared with intact rats, FIGS. 14 to 17): greater for intact rats than it was for ovariectomized rats
increase in body fat content (ovariectomized rats housed in low cages, FIG. 5): less so
increase in body fat content (ovariectomized rats housed in taller cages, FIG. 5): significantly smaller increase
increase in bone mineral content (ovariectomized rats, FIG. 9): attenuation of the increase
overall weight gain (ovariectomized rats, tall and low cages, 300 nmoles per kg s.c. daily five days per week, vs untreated, FIG. 3): relative decrease in overall weight gain
attenuating effect on decrease in BMC/BW ratio with time (ovariectomized rats, tall and low cages, compared with intact rats, FIGS. 12 and 13): less pronounced
